For this test, the system named is Saccharomyces cerevisiae ABC16-Green Monster. The test is described as follows: growth inhibition at single dose (up to 150 µM), below the 70% cut-off for dose-response; higher = more potent. Particulars: 18 h; 30 °C; YPD. In short, it runs like this:
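Values are percent growth inhibition of drug-sensitive S. cerevisiae ABC16-Green Monster cells. Cells grown overnight in YPD at 30 °C were diluted to log phase (OD600 0.1–0.2), and each library compound was added at a single dose of 150 µM to 200 µl culture per well in 96-well plates, in biological duplicates, beside untreated cultures. OD600 was read at 0 h and after 18 h at 30 °C, and compounds under 70% in both replicates were not taken to dose-response.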

Turning to `O=C(CSc1nccn2nc(-c3ccccc3)cc12)Nc1cc(C(F)(F)F)ccc1Cl`, the “growth inhibition at single dose” value was less than 70%.
Turning to `Cc1ccc(S(=O)(=O)N2c3ccc(S(N)(=O)=O)cc3CC2C)cc1` (centres undefined), the “growth inhibition at single dose” value is less than 70%.
As to `CCCCOc1ccc(C(=O)Nc2cc(C)on2)cc1`, the “growth inhibition at single dose” value is less than 70%.
With `O=C(NC1CCN(Cc2ccccc2)CC1)c1cc(-c2ccncc2)nc2ccc(Cl)cc12` the figure was less than 70%.
As to `N#Cc1ccc(-c2ccc(OCC(N)=O)cc2)cc1`, the “growth inhibition at single dose” value was less than 70%.
With `Cc1cc(N2CCN(C)CC2)n2ncc(-c3ccc(F)cc3)c2n1` the figure was less than 70%; with `CCN(CC)c1cc(C)c2cc(NC(=O)c3cccc(OC)c3)ccc2n1`, less than 70%.
With `CC(=O)NC(C)CCc1ccc(C(=O)Cn2ncc(Cl)c(Cl)c2=O)cc1` (centres undefined) the figure was less than 70%; with `CC(Oc1ccccc1)C(=O)Nc1nc(-c2ccccn2)cs1` (centres undefined), less than 70%; with `COc1cccc(CC(=O)N2CCC(n3c(C)nc4ccc(F)cc43)CC2)c1`, less than 70%.
In the case of `Cc1ccc2c(c1)nc1n2CN(CCN2CCOCC2)CN1Cc1ccccc1`, the “growth inhibition at single dose” value is less than 70%.
With `O=C(Nc1ccc(N2CCCC2)cn1)C1CC=CCC1` (centres undefined) the figure was less than 70%; with `O=C(NCc1ccco1)C1CCN(S(=O)(=O)c2ccc(Br)cc2)CC1`, less than 70%.
For `Cc1ccc(Cn2c(N3CCC(C(=O)NCc4cccs4)CC3)nc3ccccc32)cc1`, the “growth inhibition at single dose” value is less than 70%.
Regarding `Cc1ccc(OCCNC(=O)c2[nH]c3c(c2C)C(=O)CCC3)c(C)c1`, the “growth inhibition at single dose” value is less than 70%.
With `CC(=O)N1CCN(c2ccc(Oc3ccc(Cl)cc3O)cc2)CC1`, the “growth inhibition at single dose” value is less than 70%.
With `Cc1ccc(C)c(Cn2c(N3CCC(C(=O)NCc4cccs4)CC3)nc3ccccc32)c1`, the “growth inhibition at single dose” value is less than 70%.
For `COc1cc(NC(=O)Cc2nn(C)c(=O)c3ccccc23)ccc1Cl`, the “growth inhibition at single dose” value is less than 70%.
Regarding `Oc1c2c(nc3ccccc13)CCCC2`, the “growth inhibition at single dose” value is less than 70%.
As for `CC(=O)Nc1cccc2c1CCN(c1ncnc3sccc13)C2`, the “growth inhibition at single dose” value is less than 70%.
`COc1ccc(-c2nnc(SC(C)C(=O)NCCC3=CCCCC3)[nH]2)cc1` (centres undefined): the “growth inhibition at single dose” value is less than 70%.
Consider `COc1ccc2c(c1)CCCC21NC(=O)N(Cc2cc(=O)n3cc(C)ccc3n2)C1=O` (centres undefined), for which the “growth inhibition at single dose” value is less than 70%.
On to `C[C@H]1COc2c(N3CCN(C)CC3)c(F)cc3c(=O)c(C(=O)O)cn1c23`, for which the “growth inhibition at single dose” value was less than 70%.
Regarding `O=C(Nc1ccccc1)c1cn(-c2ccc3c(c2)OCCO3)nn1`, the “growth inhibition at single dose” value is less than 70%.
As to `CC[C@H](CO)NCCN[C@H](CC)CO`, the “growth inhibition at single dose” value was less than 70%.
Regarding `Cc1cc(C)c2cc(C(=O)NC3CCCCCCC3)[nH]c2c1`, the “growth inhibition at single dose” value was less than 70%.
As to `S=c1n(CN2CCN(c3ccccc3Cl)CC2)nc(-c2cccs2)n1Cc1ccccc1`, the “growth inhibition at single dose” value was less than 70%.
On to `O=C(Nc1ncccc1O)c1ccc(N2CCOCC2)nc1`, for which the “growth inhibition at single dose” value was less than 70%.
`CNc1snc(C)c1C(=O)NCCOc1ccc(OC)cc1`: the “growth inhibition at single dose” value was less than 70%.
As to `CC(C)C(Oc1cccc2ccccc12)C(=O)O` (centres undefined), the “growth inhibition at single dose” value is less than 70%.
With `N=c1c2ccccc2nnn1-c1cccc(C(F)(F)F)c1`, the “growth inhibition at single dose” value is less than 70%.
As for `COC(=O)Cc1[nH]n(-c2nc3ccccc3s2)c(=O)c1C(C)=NCCO`, the figure is less than 70%.
Consider `CC(=O)N1CCc2cc(NC(=O)c3cc(C)n(C4CCCCC4)c3C)ccc21`, for which the “growth inhibition at single dose” value was less than 70%.
Consider `Clc1ccc2c(N3CCCC3)ccnc2c1`, for which the “growth inhibition at single dose” value is less than 70%.
With `COc1ccc(-c2nn(C(C)C)c3ncnc(N)c23)cc1OC` the figure was less than 70%; with `COc1ccc(NC(=O)C2c3ccccc3C(=O)N(CC(C)C)C2c2cccs2)cc1Cl` (centres undefined), less than 70%.
With `CCCn1nnc(NC(=O)COc2ccc(C3CCCCC3)cc2)n1` the figure was less than 70%; with `Cc1cc(N2CCN(C3CCCC3)CC2)n2c(nc3ccccc32)c1C#N`, less than 70%; with `O=c1cc(CN2CCCCCC2)nc2sccn12`, less than 70%.
With `Cc1ccc(NS(=O)(=O)c2ccc(C(=O)Nc3ncccc3O)cc2)cc1C` the figure was less than 70%; with `O=C(Nc1ccc(N2CCCC2)cn1)c1cc(Cl)ccn1`, less than 70%.
`CCOC(=O)C1CCN(C(=O)CN2C(=O)c3ccccc3C2c2c[nH]c3ccccc23)CC1` (centres undefined): the “growth inhibition at single dose” value was less than 70%.
Regarding `OC(c1cn2cc(-c3ccccc3)nc2s1)(C(F)(F)F)C(F)(F)F`, the “growth inhibition at single dose” value was less than 70%.
Consider `Cc1cc(C(=O)CSc2nc3ccccc3[nH]2)c(C)n1CC1CCCO1` (centres undefined), for which the “growth inhibition at single dose” value was less than 70%.
`CNc1nnc(Sc2cnn(-c3ccccc3)c(=O)c2Cl)s1`: the “growth inhibition at single dose” value is less than 70%.
With `O=C(Nc1ccc(-c2nc3cc4ccccc4cc3[nH]2)cc1)c1cccc(Br)c1` the figure was less than 70%; with `CCCCc1ccc(NS(=O)(=O)c2cc3c4c(c2)CCN4C(=O)CC3)cc1`, less than 70%; with `Cc1cc(=O)n2nc(-c3ccc(C(C)(C)C)cc3)cc2[nH]1`, less than 70%.
On to `O=C(Nc1ccc(Br)cc1)Nc1cccc(Cl)c1`, for which the “growth inhibition at single dose” value is less than 70%.
Regarding `Nc1ncnc2c1c(Cc1cccc3ccccc13)nn2CC1CCNCC1`, the “growth inhibition at single dose” value is less than 70%.
As to `CN1CCN(c2c3c(c(C#N)c4nc5ccccc5n24)CCC3)CC1`, the “growth inhibition at single dose” value was less than 70%.
For the compound `CCCCn1c(C(C)Oc2ccc(Cl)cc2Cl)nc2cc(S(N)(=O)=O)ccc21` (centres undefined), the “growth inhibition at single dose” value is less than 70%.
In the case of `O=C(Nc1ncccc1O)c1ccc(Cn2cccn2)cc1`, the “growth inhibition at single dose” value is less than 70%.
On to `Clc1ccc2nc(CSc3nnc4c(n3)[nH]c3ccccc34)cn2c1`, for which the “growth inhibition at single dose” value is less than 70%.
As for `COCCNC(=O)c1ccc(OC2CCN(Cc3ccc(F)c(F)c3)CC2)c(Cl)c1`, the figure is less than 70%; as for `CC1(COc2ccc(N3CCC(Oc4ccc(OC(F)(F)F)cc4)CC3)cc2)Cn2cc([N+](=O)[O-])nc2O1` (centres undefined), less than 70%.
`CN1CCN(c2ccc(Nc3c4ccccc4nc4ccccc34)cc2)CC1`: the “growth inhibition at single dose” value was less than 70%.
Regarding `Cc1ccc(-c2cc3c(SCC(=O)Nc4cc(C(F)(F)F)ccc4Cl)nccn3n2)cc1`, the “growth inhibition at single dose” value was less than 70%.
`Cc1c(C)n(CCCO)c2ncn3nc(-c4ccc(F)cc4)nc3c12`: the “growth inhibition at single dose” value is less than 70%.
With `CCOc1ccccc1NC(=O)/C=C/c1nnc2c3ccccc3cnn12`, the “growth inhibition at single dose” value was less than 70%.
Regarding `Cc1cc(NC(=O)c2ccc(Oc3ccc(Cl)cc3O)o2)no1`, the “growth inhibition at single dose” value is less than 70%.
Take `CN(C)c1ccc(N2C(N)=NC(N)=NC2(C)C)cc1`: the “growth inhibition at single dose” value is less than 70%.
Regarding `CSc1nc2ccc(NC(=O)c3cn4ccccc4n3)cc2s1`, the “growth inhibition at single dose” value was less than 70%.
Regarding `CCOc1ccc(-n2cc(-c3ccccc3)c3c(SCc4cc(C)ccc4C)ncnc32)cc1`, the “growth inhibition at single dose” value is less than 70%.
Turning to `CC1=C(C#N)C(/C=N/N(C)c2ncc(C(F)(F)F)cc2Cl)CC(=O)N1` (centres undefined), the “growth inhibition at single dose” value is less than 70%.
With `CN(CCO)c1ccc(C(=O)c2ccc(N(C)CCO)cc2)cc1` the figure was less than 70%.
Take `O=C(NC1=NCCS1)c1sc2cc(F)ccc2c1Cl`: the “growth inhibition at single dose” value was less than 70%.
`O/N=C1/c2ccccc2-c2nnc(-c3cccc(OC(F)(F)F)c3)cc21`: the “growth inhibition at single dose” value is less than 70%.
Take `O=C(CN1C(=O)CSc2ccc(C(F)(F)F)cc21)Nc1ccc(Cl)cc1`: the “growth inhibition at single dose” value was less than 70%.
As for `N#Cc1ccnc(N2CCN(C(=O)c3cccc(-n4cccc4)c3)CC2)c1`, the figure is less than 70%.
For the compound `N=C(N)N/N=C/c1ccc(Cl)cc1Cl`, the “growth inhibition at single dose” value was less than 70%.
`Oc1ccc(-c2nc(-c3ccc4oc5ccc(-c6[nH]c(-c7ccc(O)cc7)nc6-c6ccccc6)cc5c4c3)c(-c3ccccc3)[nH]2)cc1`: the “growth inhibition at single dose” value is less than 70%.
As for `CCOC(=O)c1sc2ncn(-n3c(C)ccc3C)c(=O)c2c1C`, the “growth inhibition at single dose” value is less than 70%.
With `CC(C)NC(=O)NCc1ccc(C(=O)OCC(=O)C(C#N)=C2Nc3ccccc3N2)cc1` the figure was less than 70%; with `COc1cc(NS(=O)(=O)c2ccc(C)cc2)c(OC)cc1Cl`, less than 70%; with `CCCc1ccc(-c2nc(-c3cccs3)no2)cc1`, less than 70%.
In the case of `Cc1cc(C)c2c(c1)OCN(Cc1ccccc1Cl)C2`, the “growth inhibition at single dose” value is less than 70%.
For `Cc1cc(C(=O)COC(=O)c2ccccc2O)c(C)n1CC1CCCO1` (centres undefined), the “growth inhibition at single dose” value was less than 70%.
On to `COc1ccc(-c2csc3ncnc(Sc4nnc(-c5cccc(C)c5)n4CC(N)=O)c23)cc1`, for which the “growth inhibition at single dose” value was less than 70%.
On to `C/N=c1\scc(-c2ccc(OC(F)F)cc2)n1/N=C/c1ccccc1Br`, for which the “growth inhibition at single dose” value was less than 70%.
For `O=c1nc(-c2ccccn2)[nH]c2scc(-c3ccccc3)c12`, the “growth inhibition at single dose” value was less than 70%.
With `O=C(Nc1ccc(-c2nc3ccccc3[nH]2)cc1)C1CCC1`, the “growth inhibition at single dose” value is less than 70%.
Take `CN1N=C2c3ccccc3CCC2C1c1ccc(C(F)(F)F)cc1` (centres undefined): the “growth inhibition at single dose” value is less than 70%.
Consider `Cc1nnc(NC(=O)c2cn(-c3ccccc3)nc2-c2ccccc2C)o1`, for which the “growth inhibition at single dose” value was less than 70%.

The values above are taken from the supplement of paper PMC8837787.
